From the NIST ThermoML archive (doi:10.1016/j.jct.2011.10.023)

Conditions: Liquid, Vibrating tube method

CCCCCCCCCO [nonan-1-ol]
mass density [kg/m3]
Conditions	278.15 K	288.15 K	298.15 K	308.15 K	318.15 K	328.15 K	338.15 K	348.15 K	358.15 K
100 kPa	836.9	829.9	823.2	816.5	809.8	802.8	795.7	788.3	780.9
1000 kPa	837.4	830.5	823.7	817.1	810.4	803.4	796.4	788.9	781.6
5000 kPa	839.7	832.7	826.3	819.8	813.2	806.3	799.4	792.3	785
10000 kPa	842.5	835.9	829.4	822.9	816.5	809.8	803	796.1	789
15000 kPa	845.1	838.7	832.3	826	819.7	813.1	806.5	799.7	792.9
20000 kPa	847.8	841.4	835.1	828.9	822.7	816.3	809.8	803.2	796.5
25000 kPa	850.3	844	837.9	831.8	825.6	819.3	813	806.6	799.9
30000 kPa	852.8	846.6	840.5	834.5	828.5	822.3	816.1	809.8	803.3
35000 kPa	855.3	849.1	843.1	837.2	831.3	825.2	819.1	812.9	806.6
40000 kPa	857.6	851.6	845.7	839.8	834	828	822	815.9	809.7
45000 kPa	859.9	854	848.1	842.4	836.6	830.7	824.8	818.8	812.8
50000 kPa	862.2	856.3	850.5	844.8	839.2	833.4	827.6	821.6	815.7
55000 kPa	864.4	858.6	852.9	847.3	841.7	836	830.2	824.4	818.6
60000 kPa	866.4	860.7	855	849.3	844	838.3	832.7	826.7	821.2

CCCCCO [pentan-1-ol]
mass density [kg/m3]
Conditions	278.15 K	288.15 K	298.15 K	308.15 K	318.15 K	328.15 K	338.15 K	348.15 K	358.15 K
100 kPa	825.2	818	810.7	803.3	795.8	788.2	780.3	772.3	763.8
1000 kPa	825.8	818.7	811.3	804	796.6	789	781.2	773.1	764.8
5000 kPa	828.5	821.5	814.2	807	799.8	792.3	784.8	776.9	768.8
10000 kPa	831.6	824.8	817.7	810.7	803.6	796.3	788.9	781.2	773.5
15000 kPa	834.7	828	821	814	807.2	800.1	792.9	785.5	777.9
20000 kPa	837.6	831.1	824.3	817.5	810.7	803.8	796.7	789.5	782.1
25000 kPa	840.4	834	827.3	820.7	814	807.2	800.3	793.3	786.1
30000 kPa	843.2	836.9	830.3	823.8	817.3	810.6	803.8	796.9	789.9
35000 kPa	845.9	839.7	833.2	826.8	820.4	813.8	807.2	800.4	793.6
40000 kPa	848.6	842.4	836	829.7	823.4	817	810.5	803.8	797.1
45000 kPa	851.1	845	838.7	832.5	826.3	820	813.6	807.1	800.5
50000 kPa	853.6	847.6	841.4	835.3	829.1	822.9	816.6	810.3	803.8
55000 kPa	856.1	850.1	844	838	831.9	825.8	819.6	813.3	807
60000 kPa	858.4	852.5	846.4	840.4	834.6	828.4	822.5	816.2	810

CCCO [propan-1-ol]
mass density [kg/m3]
Conditions	278.15 K	288.15 K	298.15 K	308.15 K	318.15 K	328.15 K	338.15 K	348.15 K	358.15 K
100 kPa	815.7	807.8	799.8	791.6	783.4	775	766.3	757.2	747.7
1000 kPa	816.4	808.5	800.5	792.4	784.2	775.9	767.2	758.3	748.8
5000 kPa	819.4	811.6	803.8	795.8	787.9	779.7	771.3	762.6	753.5
10000 kPa	822.8	815.3	807.6	800.1	792.2	784.2	776.1	767.7	758.8
15000 kPa	826.2	818.9	811.4	803.8	796.3	788.5	780.6	772.5	764
20000 kPa	829.4	822.3	814.9	807.5	800.2	792.6	784.9	777	768.7
25000 kPa	832.6	825.5	818.3	811.1	803.9	796.5	789	781.3	773.3
30000 kPa	835.7	828.7	821.6	814.5	807.5	800.2	792.9	785.4	777.5
35000 kPa	838.6	831.8	824.8	817.8	810.9	803.8	796.6	789.3	781.6
40000 kPa	841.5	834.7	827.9	821	814.2	807.2	800.2	793	785.5
45000 kPa	844.3	837.6	830.9	824.1	817.5	810.6	803.7	796.6	789.3
50000 kPa	847.1	840.4	833.8	827.1	820.5	813.8	807	800.1	792.9
55000 kPa	849.7	843.1	836.6	830	823.6	816.9	810.3	803.5	796.4
60000 kPa	852.1	845.6	839.2	832.7	825.8	819.8	813.4	806.5	799.6
